According to article PMC11117207, “Discovery of Antimicrobial Agents Based on Structural and Functional Study of the Klebsiella pneumoniae MazEF Toxin–Antitoxin System” (Antibiotics, 2024):

test system: K. pneumoniae MazEF complex; experiment: In vitro assay of MazEF complex disruption by peptides (RNase Alert fluorescence assay); type: biochemical, Klebsiella pneumoniae; details: 20 μM peptide, 4 μM MazEF complex; 20 mM Tris pH 8.0, 200 mM NaCl; 30 min at 37 °C; RFU of 4 μM MazF = 100%, of 4 μM MazEF ~0%; three independent experiments
Source text: To validate the ribonuclease activity of MazF toxin, an RNase Alert Kit (IDT, Coralville, IA, USA) was used. The principle is as follows. In the normal state, a fluorophore is covalently attached to one end of a synthetic RNA strand and is quenched by a quencher group at the other end of the RNA strand. However, the synthetic RNA is digested and the quencher is released when the ribonuclease interacts with substrates. Then, the released fluorophore emits fluorescence at 520 nm upon excitation at 490 nm. The resulting relative fluorescence units (RFU) were detected using a SPECTRAmax GEMINI XS spectrofluorometer (Molecular Devices, San Jose, CA, USA). All experiments were performed in triplicate.
In addition to the disruption assay using small molecules, 10 short peptides that mimic the binding region between MazE and MazF were designed based on the tertiary crystal structure of the MazEF complex and purchased from ANYGEN (http://www.anygen.com, accessed on 21 April 2024) (Table 1). Among the peptides tested, six were designed to mimic the region on MazE where it binds to MazF, while the remaining four were designed to mimic the region on MazF where it binds to MazE. This design was chosen to investigate the interactions between MazE and MazF and their respective binding regions. The main principle and process were consistent with those of complex disruption by small molecules, which has been mentioned above. The concentration of the MazEF complex was fixed at 4 μM, and the concentration of competing peptides was 20 μM. Furthermore, all of the proteins and peptides used in this assay were prepared in 20 mM Tris, pH 8.0, and 200 mM NaCl. The MazEF complex was incubated with the peptides for 30 min at 37 °C before fluorescence measurement.

| Substance | disruption of the MazEF complex (RNase activity) |
| --- | --- |
| DSQGKE [Peptide A, MazE-mimicking peptide DSQGKE (69–74)] | approximately 65% |
| EYLCDSQGKEML [Peptide F, MazE-mimicking peptide […]; (65–76)] | 80−83% |
| YLCDSQGKEML [Peptide E, MazE-mimicking peptide […]; (66–76)] | 80−83% |

same assay, conditions: 20 μM peptide, 4 μM MazEF complex; 30 min at 37 °C

| Substance | RNase activity compared with the related peptide (in words) |
| --- | --- |
| EYLCDSQGKE [Peptide C, MazE-mimicking peptide […]; (65–74)] | did not exhibit significant differences from Peptide A |
| KSLD [Peptide G, MazF-mimicking peptide KSLD (79–82)] | no significant difference |
| KSLDWKAR [Peptide I, MazF-mimicking peptide KSLDWKAR (79–86)] | dramatic increase in RNase activity |
| QVKSLD [Peptide H, MazF-mimicking peptide QVKSLD (77–82)] | no significant difference |
| QVKSLDWKAR [Peptide J, MazF-mimicking peptide […]; (77–86)] | dramatic increase in RNase activity |
| YLCDSQGKE [Peptide B, MazE-mimicking peptide … (66–74)] | did not exhibit significant differences from Peptide A |
